Test system: KRAS PDC tumor spheroids (HUVEC+MSC), viability
Experiment: Anticancer human tumor 254851-301-R-J1-PDC patient-derived colon carcinoma cell line growth inhibition [KRAS2]
Conditions: for IC50: curve of first compound; for viability, T/C: stronger effect = lower value
How it was run: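 KRAS-mutant tumor cells were grown as spheroids with HUVEC endothelial cells and human MSCs as stroma. Targeted agents were tested alone and with KRAS pathway inhibitors. Doses started at or near clinical Cmax, or 10 microM, descending half-log.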

[1] = second compound 0.1 µM, first compound 0.01 µM
[2] = second compound 0.1 µM, first compound 0.0316 µM
[3] = second compound 0.1 µM, first compound 0.1 µM
[4] = second compound 0.1 µM, first compound 0.316 µM
[5] = second compound 0.1 µM, first compound 1 µM
[6] = second compound 0.1 µM, first compound 3.16 µM
[7] = second compound 0.316 µM, first compound 0.01 µM
[8] = second compound 0.316 µM, first compound 0.0316 µM
[9] = second compound 0.316 µM, first compound 0.1 µM
[10] = second compound 0.316 µM, first compound 0.316 µM
[11] = second compound 0.316 µM, first compound 1 µM
[12] = second compound 0.316 µM, first compound 3.16 µM
[13] = second compound 1 µM, first compound 0.01 µM
[14] = second compound 1 µM, first compound 0.0316 µM
[15] = second compound 1 µM, first compound 0.1 µM
[16] = second compound 1 µM, first compound 0.316 µM
[17] = second compound 1 µM, first compound 1 µM
[18] = second compound 1 µM, first compound 3.16 µM
[19] = second compound 3.16 µM, first compound 0.01 µM
[20] = second compound 3.16 µM, first compound 0.0316 µM
[21] = second compound 3.16 µM, first compound 0.1 µM
[22] = second compound 3.16 µM, first compound 0.316 µM
[23] = second compound 3.16 µM, first compound 1 µM
[24] = second compound 3.16 µM, first compound 3.16 µM
[25] = second compound 10 µM, first compound 0.01 µM
[26] = second compound 10 µM, first compound 0.0316 µM
[27] = second compound 10 µM, first compound 0.1 µM
[28] = second compound 10 µM, first compound 0.316 µM
[29] = second compound 10 µM, first compound 1 µM
[30] = second compound 10 µM, first compound 3.16 µM
[31] = second compound 0.1 µM, first compound 10 µM
[32] = second compound 0.316 µM, first compound 10 µM
[33] = second compound 1 µM, first compound 10 µM
[34] = second compound 3.16 µM, first compound 10 µM
[35] = second compound 10 µM, first compound 10 µM
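Also: spheroids exposed to compounds for seven days before readout.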
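For viability, T/C in this document: 100% = DMSO vehicle control luminescence of the spheroids.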

| Compound | IC50 (second compound 0.1 µM) | IC50 (second compound 0.316 µM) | IC50 (second compound 1 µM) | IC50 (second compound 3.16 µM) | viability, T/C [2] | viability, T/C [3] | viability, T/C [4] | viability, T/C [5] | viability, T/C [6] | viability, T/C [8] | viability, T/C [9] | viability, T/C [10] | viability, T/C [11] | viability, T/C [12] | viability, T/C [14] | viability, T/C [15] | viability, T/C [16] | viability, T/C [17] | viability, T/C [18] | viability, T/C [20] | other results |
| --- | --- | --- | --- | --- | --- | --- | --- | --- | --- | --- | --- | --- | --- | --- | --- | --- | --- | --- | --- | --- | --- |
| CC(=O)OC12COC1CC(O)C1(C)C(=O)C(O)C3=C(C)C(OC(=O)C(O)C(NC(=O)OC(C)(C)C)c4ccccc4)CC(O)(C(OC(=O)c4ccccc4)C21)C3(C)C (stereo not given) + CC1OCC2(CCN(c3cnc(Sc4ccnc(N)c4Cl)c(N)n3)CC2)C1N | 0.154 µM | 0.175 µM | 0.168 µM | 0.0801 µM | 89.1% | 59.8% | 33.6% | 24.1% | 24% | 85.8% | 61.6% | 38.1% | 23.2% | 22.6% | 89.6% | 60.5% | 36.1% | 26.6% | 22.9% | 72.3% | IC50 (second compound 10 µM): 0.0584 µM; viability, T/C [1]: 99.2%; viability, T/C [7]: 93.3%; viability, T/C [13]: 80.7%; viability, T/C [19]: 73.3%; viability, T/C [21]: 44.5%; viability, T/C [22]: 22.3%; viability, T/C [23]: 17.1%; viability, T/C [24]: 18.6%; viability, T/C [25]: 64.2%; viability, T/C [26]: 66.4%; viability, T/C [27]: 36.7%; viability, T/C [28]: 21.2%; viability, T/C [29]: 16.1%; viability, T/C [30]: 16.1% |
| CC1OCC2(CCN(c3cnc(Sc4ccnc(N)c4Cl)c(N)n3)CC2)C1N (stereo not given) + C=CC(=O)N1CCN(c2nc(OCC3CCCN3C)nc3c2CCN(c2cccc4cccc(C)c24)C3)CC1CC#N | > 10 µM | > 10 µM | > 10 µM | > 10 µM | 115% | 107% | 89.3% | 85.3% | 77.1% | 89.8% | 95.6% | 93.4% | 84.7% | 83.4% | 59.1% | 68.1% | 65.3% | 69% | 66.2% | 60.1% | IC50 (second compound 0.0316 µM): > 10 µM; viability, T/C (second compound 0.0316 µM, first compound 0.0316 µM): 101%; viability, T/C (second compound 0.0316 µM, first compound 0.1 µM): 99.7%; viability, T/C (second compound 0.0316 µM, first compound 0.316 µM): 102%; viability, T/C (second compound 0.0316 µM, first compound 1 µM): 85.4%; viability, T/C (second compound 0.0316 µM, first compound 3.16 µM): 77.2%; viability, T/C (second compound 0.0316 µM, first compound 10 µM): 75.3%; viability, T/C [31]: 83%; viability, T/C [32]: 72.8%; viability, T/C [33]: 64.8%; viability, T/C [21]: 58.7%; viability, T/C [22]: 59.4%; viability, T/C [23]: 68.5%; viability, T/C [24]: 60.6%; viability, T/C [34]: 58.9% |
| Cn1nccc1Nc1nccc(-c2cc3c(s2)C(C)(C)N(CCN2CCOCC2)C3=O)n1 + CNCc1ccccc1-c1csc(C(C)Nc2nc(C)nc3cc(OC)c(OC)cc23)c1 | 2.08 µM | 2.5 µM | 1.61 µM | < 0.0316 µM | 106% | 97.4% | 99.6% | 89.8% | 27.4% | 90.7% | 94.5% | 86.7% | 81.3% | 42% | 95.4% | 106% | 93.3% | 77.4% | 11.2% | 25.9% | IC50 (second compound 10 µM): < 0.0316 µM; viability, T/C [31]: 3.87%; viability, T/C [32]: 4.06%; viability, T/C [33]: 3.35%; viability, T/C [21]: 51%; viability, T/C [22]: 58%; viability, T/C [23]: 24.2%; viability, T/C [24]: 0.16%; viability, T/C [34]: 0.12%; viability, T/C [26]: 0.09%; viability, T/C [27]: 0.11%; viability, T/C [28]: 0.08%; viability, T/C [29]: 0.06%; viability, T/C [30]: 0.06%; viability, T/C [35]: 0.09% |
| CC1OCC2(CCN(c3cnc(Sc4ccnc(N)c4Cl)c(N)n3)CC2)C1N (stereo not given) + C=CC(=O)N1CCN(c2nc(=O)n(-c3c(C)ccnc3C(C)C)c3nc(-c4c(O)cccc4F)c(F)cc23)C(C)C1 | > 10 µM | > 10 µM | > 10 µM | > 10 µM | 95% | 91% | 81.6% | 60.2% | 67.2% | 78% | 99.2% | 75.4% | 71.4% | 60.5% | 94.6% | 84.7% | 76.3% | 74.1% | 67.8% | 92.6% | IC50 (second compound 10 µM): > 10 µM; viability, T/C [31]: 61.9%; viability, T/C [32]: 68.7%; viability, T/C [33]: 67.5%; viability, T/C [21]: 71.1%; viability, T/C [22]: 81.5%; viability, T/C [23]: 63.9%; viability, T/C [24]: 72.2%; viability, T/C [34]: 65.6%; viability, T/C [26]: 80.7%; viability, T/C [27]: 70.8%; viability, T/C [28]: 58.9%; viability, T/C [29]: 55.6%; viability, T/C [30]: 56%; viability, T/C [35]: 66.3% |
| CC1COCCN1c1cc(-c2ccnn2C)c2ccnc(-c3ccn[nH]3)c2n1 (stereo not given) + CNCc1ccccc1-c1csc(C(C)Nc2nc(C)nc3cc(OC)c(OC)cc23)c1 | 0.278 µM | 0.217 µM | 0.252 µM | < 0.01 µM | 103% | 60.1% | 50.7% | 36% | 20.1% | 93.9% | 64.4% | 42.9% | 34.3% | 25.9% | 93.4% | 70.4% | 44.9% | 31% | 24.1% | 35.2% | IC50 (second compound 10 µM): < 0.01 µM; viability, T/C [1]: 107%; viability, T/C [7]: 91.9%; viability, T/C [13]: 95.5%; viability, T/C [19]: 44.1%; viability, T/C [21]: 31.2%; viability, T/C [22]: 14.6%; viability, T/C [23]: 26.8%; viability, T/C [24]: 17%; viability, T/C [25]: 0.08%; viability, T/C [26]: 0.08%; viability, T/C [27]: 0.07%; viability, T/C [28]: 0.99%; viability, T/C [29]: 0.07%; viability, T/C [30]: 0.12% |
| CC(C)NCC(C(=O)N1CCN(c2ncnc3c2C(C)CC3O)CC1)c1ccc(Cl)cc1 (stereo not given) + COc1cc2nc(C)nc(NC(C)c3cc(N)cc(C(F)(F)F)c3)c2cc1OC1CCOC1 | > 10 µM | > 10 µM | 2.02 µM | 3.16 µM | 107% | 99.7% | 99.7% | 91.5% | 39.8% | 101% | 98.2% | 84.3% | 84.1% | 31.1% | 85.2% | 100% | 82.2% | 78.5% | 32.2% | 85.6% | IC50 (second compound 10 µM): 0.514 µM; viability, T/C [31]: 75.7%; viability, T/C [32]: 71.4%; viability, T/C [33]: 13.7%; viability, T/C [21]: 83.2%; viability, T/C [22]: 88.4%; viability, T/C [23]: 44.5%; viability, T/C [24]: 32.5%; viability, T/C [34]: 75.1%; viability, T/C [26]: 75.3%; viability, T/C [27]: 82%; viability, T/C [28]: 56.1%; viability, T/C [29]: 41.2%; viability, T/C [30]: 15.5%; viability, T/C [35]: 29.4% |
